# Laboratory results from patent US7511074B2, “Tetrafluorobenzyl derivatives and pharmaceutical composition for preventing and treating acute and chronic neurodegenerative diseases in central nervous system containing the same” (AmKor Pharma, Inc., priority 2002, dated 2009).
# Columns and labels:
# [1] = test system: Mouse cortical cell cultures; test: NMDA-induced excitotoxicity in mixed cortical cell cultures (LDH release); type: cell-based; settings: 300 μM NMDA for 10 min, co-treatment; LDH release 24 hr later
# Description: (§1) Mouse cortical cell cultures (DIV 12-14) were exposed to 300 μM NMDA for 10 min, alone or with inclusion of 3-300 μM 2-Hydroxy-TTBA. Neuronal death was analyzed 24 hr later by measuring levels of LDH released into the bathing medium, mean ±SEM (n=9-12 culture wells per condition), scaled to mean LDH efflux value 24 hr after sham wash (=0) and continuous exposure to 500 μM NMDA (=100) that causes near complete neuronal death. *, Significant difference from the vehicle control, p<0.05 using ANOVA and Student-Neuman-Keuls' test.
# as §1, with “alone (□)” for “alone”, “2-Hydroxy-TTS (●), 2-Hydroxy-TTA (◯), 2-Ethan-TTBA (▾), 2-Propan-TTBA (∇), or 2-Cyclohexan-TTBA (▪).” for “2-Hydroxy-TTBA.”, “(=100).” for “(=100) that causes near complete neuronal death.”
# For mixed neuron-glia culture, mouse cerebral cortices were removed from brains of the 14-16 day-old-fetal mice (E14-16), gently triturated and plated on 24 well plates (2×10^5 cells/plate) precoated with 100 μg/ml poly-D-lysine and 4 μg/ml laminine. […]
# [2] = test system: Sprague-Dawley rats, compression of T8 spinal cord; test: Mitochondrial ROS production after traumatic spinal cord injury; type: in vivo, rat; settings: 50 mg/kg ip immediately after injury; analyzed 48 hr later
# Description: Adult rats received compression injury at the level of T8 spinal cord, alone (control) or with injections of 2-Hydroxy-TTBA (50 mg/kg, ip) and Mitotracker CM-H2X ROS immediately after injury. Animals were euthanized 2 d later, spinal cord sections sections immunostained with an antibody for NeuN (a neuronal marker protein), and levels of mitochondrial ROS in the dorsal horn neurons (DHN) analyzed by measuring fluorescence intensity of oxidized Mitotracker CM-H2X, mean ±S.E.M. [n=12 rats for each condition (5 spinal cord sections for each rat)]. *, Significant difference from the vehicle control, p<0.05 using the independent t-test.
# Sprague-Dawley rats (250-300 g, female) received traumatic spinal cord injury by compression of the dorsal spinal cord. T8 segment of spinal cord was exposed on the dorsal side, compressed with 20 g for 10 min, and then mitochondrial CM-H2X Ros was immediately injected into the spinal cord. 2-Hydroxy-TTBA (50 mg/kg, ip) or a vehicle control (control) was injected with mitochondrial CM-H2X Ros. Levels of mitochondrial ROS in the dorsal horn neurons were analyzed 48 hr later as described above after immunolabeling with anti-NeuN antibody, a neuron-specific marker.
# [3] = test system: Sprague-dawley rats, four-vessel occlusion; test: Mitochondrial ROS generation after transient global ischemia (four-vessel occlusion); type: in vivo, rat; settings: 50 mg/kg i.p. after reperfusion; 10 min four-vessel occlusion; analyzed 2 hr later
# Description: Mitotracker CM-H2X ROS was injected into the lateral ventricle of rat brain at 24 hr before ischemic surgery, and then animals received transient forebrain ischemia for 10 min, with intraperitoneal injections of vehicle (control) or 2-Hydroxy-TTBA (50 mg/kg) at 5 min after reperfusion. The levels of mitochondrial ROS were analyzed 2 hr later, mean ±S.E.M. (n=50-70 neurons randomly chosen from the CA1 sector of the hippocampal formation per each condition). *, Significant difference from the vehicle control, p<0.05 using the independent t-test.
# Male adult Sprague-dawley rats (250-300 g) were anesthetized with chloral hydrate and subjected to four-vessel occlusion model (occlusion of both common carotid arteries and vertebral arteries) as previously described [Pulsinelli and Brierley, stroke 10: 267-272 (1979)].
# Rats received the intracerebroventricular injections of 0.4 nmol Mitotracker CM-H2X Ros. After 24 hr, rats received four-vessel occlusion for 10 min. Immediately after reperfusion, rats received the intraperitoneal injections of saline (control) or 2-Hydroxy-TTBA (50 mg/kg). Levels of mitochondrial ROS were analyzed 2 hr later by measuring the fluorescence intensity of oxidized Mitotracker CM-H2X Ros in mitochondria.
compound,measurement,setting,value
"O=C(O)c1cc(NCc2c(F)c(F)c(C(F)(F)F)c(F)c2F)ccc1O [2-Hydroxy-TTBA, 2-hydroxy-5-(2,3,5,6-tetrafluoro-4-trifluoromethylbenzylamino)benzoic acid]",doses at which NMDA-induced neuronal death was blocked/prevented,[1],10 to 300 µM
same,mitochondrial ROS production in spinal cord neurons,[2],significantly reduced mitochondrial ROS production
same,production of mitochondrial ROS after transient global ischemia,[3],reduced production of mitochondrial ROS
